Values quoted from earlier work in patent US20200352901A1, “TETRAHYDROCANNABINOL MODULATORS” (priority 2017, published 2020).
Read-outs that look alike come from different tables or passages of the source.

How the values were obtained:
CB1 [1] = target: T1, CB1 (Homo sapiens, UniProt P21554); conditions: read-out: Binding affinity to CB1
Target sequence in this assay (P21554 whole entry): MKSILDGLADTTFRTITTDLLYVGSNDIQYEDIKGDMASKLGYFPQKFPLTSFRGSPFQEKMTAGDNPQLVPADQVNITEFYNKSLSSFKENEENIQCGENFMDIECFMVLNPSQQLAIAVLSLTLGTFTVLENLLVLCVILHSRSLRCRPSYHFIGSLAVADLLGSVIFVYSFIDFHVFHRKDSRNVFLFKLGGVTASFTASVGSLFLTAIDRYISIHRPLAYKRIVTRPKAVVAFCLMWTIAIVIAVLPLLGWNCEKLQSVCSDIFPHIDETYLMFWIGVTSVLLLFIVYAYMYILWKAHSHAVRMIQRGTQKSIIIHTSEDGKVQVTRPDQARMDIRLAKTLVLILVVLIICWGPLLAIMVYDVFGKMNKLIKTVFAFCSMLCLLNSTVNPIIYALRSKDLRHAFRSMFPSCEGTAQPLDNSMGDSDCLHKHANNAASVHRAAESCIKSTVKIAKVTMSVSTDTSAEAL

human CB2 receptor [2] = target: T2, human CB2 receptor (Homo sapiens, UniProt P34972); conditions: cells expressing human CB2 receptor; radioligand binding; read-out: Binding affinity to CB2
CB1 [3] = target: T1, CB1
Target sequence in this assay (P21554 whole entry, species assumed): as the sequence (P21554 whole entry) above

UGT1A10 = target: T3, UGT1A10 (Homo sapiens, UniProt Q9HAW8); conditions: extrahepatic isoform UGT1A10
T3 sequence (Q9HAW8 26-530): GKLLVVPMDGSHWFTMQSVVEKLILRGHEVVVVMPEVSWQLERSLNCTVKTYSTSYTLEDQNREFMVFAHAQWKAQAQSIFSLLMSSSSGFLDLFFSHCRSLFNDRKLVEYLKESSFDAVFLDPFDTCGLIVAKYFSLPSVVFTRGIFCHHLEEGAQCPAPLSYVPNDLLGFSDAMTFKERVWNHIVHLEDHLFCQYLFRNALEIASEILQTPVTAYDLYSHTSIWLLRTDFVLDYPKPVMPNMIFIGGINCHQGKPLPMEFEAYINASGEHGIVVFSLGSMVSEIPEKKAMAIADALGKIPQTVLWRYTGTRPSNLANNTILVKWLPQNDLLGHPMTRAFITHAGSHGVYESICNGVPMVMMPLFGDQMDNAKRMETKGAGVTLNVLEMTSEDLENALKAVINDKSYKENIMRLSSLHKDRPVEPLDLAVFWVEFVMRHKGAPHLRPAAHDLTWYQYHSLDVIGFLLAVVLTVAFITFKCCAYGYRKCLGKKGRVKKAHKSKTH

CB1 [4] = target: T1, CB1; remark: listed apart in the source
Target sequence in this assay (P21554 whole entry): as the sequence (P21554 whole entry) above

human CB2 receptor [5] = target: T2, human CB2 receptor
CYP2C9 [6] = target: T4, CYP2C9 (Homo sapiens, UniProt P11712); conditions: read-out: IC(50) for CYP2C9 inhibition
CYP1A2 = target: T5, CYP1A2 (Homo sapiens, UniProt P05177); conditions: read-out: IC(50) for CYP1A2 inhibition
T5 sequence (P05177 1-516): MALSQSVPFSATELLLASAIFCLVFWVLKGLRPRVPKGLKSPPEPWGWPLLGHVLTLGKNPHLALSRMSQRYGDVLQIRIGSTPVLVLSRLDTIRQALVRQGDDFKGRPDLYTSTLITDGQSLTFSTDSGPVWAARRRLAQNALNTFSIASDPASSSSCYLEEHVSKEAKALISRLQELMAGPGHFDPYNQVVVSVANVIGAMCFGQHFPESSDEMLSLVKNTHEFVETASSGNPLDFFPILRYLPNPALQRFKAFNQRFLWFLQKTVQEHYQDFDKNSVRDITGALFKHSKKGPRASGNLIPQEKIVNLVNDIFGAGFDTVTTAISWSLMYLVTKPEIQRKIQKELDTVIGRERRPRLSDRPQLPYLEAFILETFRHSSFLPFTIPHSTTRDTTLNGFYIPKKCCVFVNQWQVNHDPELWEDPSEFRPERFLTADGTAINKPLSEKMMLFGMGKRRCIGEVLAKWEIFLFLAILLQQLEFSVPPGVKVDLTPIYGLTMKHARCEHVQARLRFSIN

CYP3A4 [7] = target: T6, CYP3A4 (Homo sapiens, UniProt P08684); conditions: read-out: IC(50) for CYP3A4 inhibition
CYP2C8 = target: T7, CYP2C8 (Homo sapiens, UniProt P10632); conditions: standard substrate of CYP2C8
T7 sequence (P10632 1-490): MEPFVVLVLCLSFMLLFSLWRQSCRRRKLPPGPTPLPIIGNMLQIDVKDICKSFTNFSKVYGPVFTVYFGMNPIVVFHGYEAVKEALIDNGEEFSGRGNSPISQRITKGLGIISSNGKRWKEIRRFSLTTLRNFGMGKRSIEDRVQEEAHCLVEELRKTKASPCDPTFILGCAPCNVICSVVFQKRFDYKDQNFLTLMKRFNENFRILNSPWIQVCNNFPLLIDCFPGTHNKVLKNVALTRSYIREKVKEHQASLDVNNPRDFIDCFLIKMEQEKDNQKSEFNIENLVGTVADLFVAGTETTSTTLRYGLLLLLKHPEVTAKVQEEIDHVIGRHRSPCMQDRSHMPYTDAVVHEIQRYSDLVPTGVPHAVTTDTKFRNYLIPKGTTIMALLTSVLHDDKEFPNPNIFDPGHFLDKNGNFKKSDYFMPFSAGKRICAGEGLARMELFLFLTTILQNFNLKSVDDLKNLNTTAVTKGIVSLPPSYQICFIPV

CYP2B6 = CYP2B6 (Homo sapiens, UniProt P20813); conditions: standard substrate of CYP2B6
UGT1A9 = target: T8, UGT1A9 (Homo sapiens, UniProt O60656); conditions: at 200 micromolar carvacrol; test substrate 4-methylumbelliferone
T8 sequence (O60656 26-530): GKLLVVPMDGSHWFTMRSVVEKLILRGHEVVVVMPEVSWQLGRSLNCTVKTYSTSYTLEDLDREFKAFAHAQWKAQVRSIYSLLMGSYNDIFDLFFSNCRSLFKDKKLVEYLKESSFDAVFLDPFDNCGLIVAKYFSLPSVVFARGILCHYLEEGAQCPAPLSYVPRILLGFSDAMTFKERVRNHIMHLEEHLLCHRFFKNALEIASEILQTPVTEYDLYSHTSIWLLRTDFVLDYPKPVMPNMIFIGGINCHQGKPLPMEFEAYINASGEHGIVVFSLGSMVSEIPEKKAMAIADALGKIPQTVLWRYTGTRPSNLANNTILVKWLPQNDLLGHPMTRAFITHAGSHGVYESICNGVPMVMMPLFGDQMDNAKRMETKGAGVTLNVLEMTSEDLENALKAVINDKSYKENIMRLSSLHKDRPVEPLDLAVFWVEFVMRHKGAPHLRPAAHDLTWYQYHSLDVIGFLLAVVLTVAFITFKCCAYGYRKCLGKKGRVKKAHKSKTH

CYP2A6 = CYP2A6 (Homo sapiens, UniProt P11509); conditions: standard substrate of CYP2A6
CYP2D6 = CYP2D6 (Homo sapiens, UniProt P10635); conditions: standard substrate of CYP2D6
CYP2C9 [8] = target: T4, CYP2C9; conditions: standard substrate of CYP2C9
CYP3A4 [9] = target: T6, CYP3A4; conditions: standard substrate of CYP3A4

T2 sequence (P34972 whole entry): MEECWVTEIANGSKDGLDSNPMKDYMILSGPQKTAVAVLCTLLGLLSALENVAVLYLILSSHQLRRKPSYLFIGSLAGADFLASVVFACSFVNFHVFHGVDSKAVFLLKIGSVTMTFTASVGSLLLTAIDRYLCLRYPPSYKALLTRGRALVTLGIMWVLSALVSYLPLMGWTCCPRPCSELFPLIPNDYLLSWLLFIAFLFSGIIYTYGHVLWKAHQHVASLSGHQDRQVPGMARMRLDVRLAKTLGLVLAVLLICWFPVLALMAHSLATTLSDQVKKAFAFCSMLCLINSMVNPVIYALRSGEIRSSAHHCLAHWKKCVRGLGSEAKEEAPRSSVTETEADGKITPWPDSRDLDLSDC
T6 sequence (P08684 whole entry): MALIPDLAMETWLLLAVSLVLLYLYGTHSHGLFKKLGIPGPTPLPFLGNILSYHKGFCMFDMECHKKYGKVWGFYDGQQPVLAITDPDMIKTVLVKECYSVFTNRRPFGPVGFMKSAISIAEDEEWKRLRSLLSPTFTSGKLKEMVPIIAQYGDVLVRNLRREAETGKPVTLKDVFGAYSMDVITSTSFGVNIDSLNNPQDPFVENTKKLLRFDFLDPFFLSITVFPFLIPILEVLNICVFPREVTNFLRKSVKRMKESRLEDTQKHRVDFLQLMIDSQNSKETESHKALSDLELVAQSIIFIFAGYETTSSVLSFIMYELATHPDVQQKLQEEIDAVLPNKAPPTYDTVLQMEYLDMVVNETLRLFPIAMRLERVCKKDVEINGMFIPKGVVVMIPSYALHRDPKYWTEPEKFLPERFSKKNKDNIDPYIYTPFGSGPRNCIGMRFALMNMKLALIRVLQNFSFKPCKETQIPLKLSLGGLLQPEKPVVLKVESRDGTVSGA
T4 sequence (P11712 whole entry): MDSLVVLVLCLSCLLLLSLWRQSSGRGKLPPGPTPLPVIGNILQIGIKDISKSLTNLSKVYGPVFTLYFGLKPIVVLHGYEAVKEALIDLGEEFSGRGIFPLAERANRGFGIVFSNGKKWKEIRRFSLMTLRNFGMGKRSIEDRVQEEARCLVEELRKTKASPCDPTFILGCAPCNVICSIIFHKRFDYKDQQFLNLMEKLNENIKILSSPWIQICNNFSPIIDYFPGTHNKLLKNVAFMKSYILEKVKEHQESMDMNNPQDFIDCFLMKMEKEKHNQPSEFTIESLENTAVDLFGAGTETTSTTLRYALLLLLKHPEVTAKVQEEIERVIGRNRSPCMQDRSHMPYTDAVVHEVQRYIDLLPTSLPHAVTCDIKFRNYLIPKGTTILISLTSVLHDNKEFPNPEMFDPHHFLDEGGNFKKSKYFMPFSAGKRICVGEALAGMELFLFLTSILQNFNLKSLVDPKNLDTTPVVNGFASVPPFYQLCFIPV
CYP2A6, sequence (P11509 whole entry): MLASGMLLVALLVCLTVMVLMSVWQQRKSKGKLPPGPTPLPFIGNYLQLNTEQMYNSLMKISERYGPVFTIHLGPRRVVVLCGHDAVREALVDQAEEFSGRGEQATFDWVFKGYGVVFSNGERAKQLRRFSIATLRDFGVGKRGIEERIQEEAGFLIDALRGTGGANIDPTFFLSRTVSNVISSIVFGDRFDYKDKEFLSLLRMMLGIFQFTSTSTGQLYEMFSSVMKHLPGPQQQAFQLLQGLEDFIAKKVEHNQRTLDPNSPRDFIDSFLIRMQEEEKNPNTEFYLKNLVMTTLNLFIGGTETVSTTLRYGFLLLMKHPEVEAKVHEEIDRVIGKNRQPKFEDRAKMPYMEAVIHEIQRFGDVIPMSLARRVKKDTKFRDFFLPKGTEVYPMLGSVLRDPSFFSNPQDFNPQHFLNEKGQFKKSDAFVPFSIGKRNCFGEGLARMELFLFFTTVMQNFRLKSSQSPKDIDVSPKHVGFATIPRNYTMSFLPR
CYP2B6, sequence (P20813 whole entry): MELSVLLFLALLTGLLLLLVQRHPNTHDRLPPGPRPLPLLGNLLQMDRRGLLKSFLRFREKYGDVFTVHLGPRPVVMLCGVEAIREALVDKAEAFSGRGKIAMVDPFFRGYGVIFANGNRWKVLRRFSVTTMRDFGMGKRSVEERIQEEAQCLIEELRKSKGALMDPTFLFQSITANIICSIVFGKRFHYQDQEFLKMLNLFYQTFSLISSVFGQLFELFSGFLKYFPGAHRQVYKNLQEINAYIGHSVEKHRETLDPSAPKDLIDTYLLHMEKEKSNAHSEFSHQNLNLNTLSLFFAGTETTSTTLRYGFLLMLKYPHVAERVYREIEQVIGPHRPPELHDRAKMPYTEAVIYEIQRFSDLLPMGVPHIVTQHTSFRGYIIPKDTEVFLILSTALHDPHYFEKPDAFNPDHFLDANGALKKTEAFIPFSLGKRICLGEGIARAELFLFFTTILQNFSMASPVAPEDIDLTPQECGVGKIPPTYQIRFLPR
CYP2D6, sequence (P10635 whole entry): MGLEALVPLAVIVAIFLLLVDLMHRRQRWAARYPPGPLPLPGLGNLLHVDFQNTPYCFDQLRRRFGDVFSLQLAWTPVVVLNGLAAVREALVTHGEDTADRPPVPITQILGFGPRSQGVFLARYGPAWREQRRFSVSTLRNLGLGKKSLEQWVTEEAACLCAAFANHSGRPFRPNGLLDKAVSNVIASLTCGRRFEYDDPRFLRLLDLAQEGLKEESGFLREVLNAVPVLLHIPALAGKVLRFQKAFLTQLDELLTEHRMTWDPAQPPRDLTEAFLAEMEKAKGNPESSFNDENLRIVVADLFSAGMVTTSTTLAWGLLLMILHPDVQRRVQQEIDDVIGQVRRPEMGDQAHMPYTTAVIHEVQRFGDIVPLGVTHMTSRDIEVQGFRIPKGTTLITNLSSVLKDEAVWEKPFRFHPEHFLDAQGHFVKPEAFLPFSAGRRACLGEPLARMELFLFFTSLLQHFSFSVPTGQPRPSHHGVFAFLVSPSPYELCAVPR

Q: For `CCCCCc1cc(O)c2c(c1)OC(C)(C)C1CC(O)C(C)=CC21` (single isomer, unassigned) [Compound 1, 8-alpha-hydroxy-delta-9-THC], which Ki (CB1 [1]) is on record?
A: Its Ki is 1910 nM.

Q: And the Ki (human CB2 receptor [2])?
A: Its Ki is 3220 nM.

Q: Which Ki (CB1 [1]) does the source give for `CCCCCc1cc(O)c2c(c1)OC(C)(C)C1CC(O)C(C)=CC21` (single isomer, unassigned) [Compound 2, 8-beta-hydroxy-delta-9-THC] here?
A: Its Ki is 65 nM.

Q: And the Ki (human CB2 receptor [2])?
A: Its Ki is 88 nM.

Q: For `C=C1CCC2C(c3c(O)cc(CCCCC)cc3OC2(C)C)C1O` (single isomer, unassigned) [Compound 4, 10-beta-hydroxy-delta-9,11-hexahydro-cannabinol], which Ki (CB1 [1]) is on record?
A: Its Ki is 830 nM.

Q: What about the Ki (human CB2 receptor [2]) of the same compound?
A: Its Ki is 3270 nM.

Q: Which results are given for `C=C1CCC2C(c3c(O)cc(CCCCC)cc3OC2(C)C)C1O` (single isomer, unassigned) [Compound 5, 10-alpha-hydroxy-delta-9,11-hexahydro-cannabinol]?
A: Ki (CB1 [1]): 117 nM; Ki (human CB2 receptor [2]): 129 nM

Q: Which “Functional character at CB1” value (CB1 [3]) does the source give for `CCCCCc1cc(O)c2c(c1)OC(C)(C)[C@@H]1CC=C(CO)C[C@@H]21` [11-hydroxy-delta-8-THC] here?
A: Its value is “agonists”.

Q: Which Km (UGT1A10) does the source give for `CCCCCc1cc(O)c2c(c1)OC(C)(C)c1ccc(C)cc1-2` [CBN, cannabinol] here?
A: The Km was 55 µM.

Q: Which “Functional character at CB1” value (CB1 [4]) does the source give for `CCCCCc1cc(O)c2c(c1)OC(C)(C)C1CC=C(C)C(O)C21` (stereo not drawn) [Compound 3, 10-alpha-hydroxy-delta-8-THC] here?
A: Its value is “partial agonist”.

Q: What about the Ki (CB1 [1]) of the same compound?
A: The Ki was 31 nM.

Q: And the Ki (human CB2 receptor [2])?
A: Its Ki is 30 nM.

Q: What about the “Functional character at CB2” value (human CB2 receptor [5]) of the same compound?
A: The value was “partial agonist”.

Q: For `CC(C)=C1C[C@@H]2O[C@@]2(C)CC/C=C(\C)CC1=O` [Compound 7, (4S,5S)-(−)-germacrone-4,5-epoxide], which IC50 (CYP2C9 [6]) is on record?
A: The IC50 was 7600 ± 2500 nM.

Q: And the IC50 (CYP1A2)?
A: Its IC50 is 33200 ± 3600 nM.

Q: What about the IC50 (CYP3A4 [7]) of the same compound?
A: Its IC50 is 1000 ± 200 nM.

Q: Which IC50 (CYP1A2) does the source give for `COc1cc(/C=C/C(=O)CC(=O)/C=C/c2ccc(O)c(OC)c2)ccc1O` [Compound 11, curcumin] here?
A: Its IC50 is > 100000 nM.

Q: What does the source list for `CCCCCc1cc(O)c2c(c1)OC(C)(C)[C@@H]1CCC(CO)=C[C@@H]21` [Compound 11-OH-THC, 11-hydroxy-delta-9-tetrahydrocannabinol]?
A: Km (UGT1A10): 16 µM; Functional character at CB1 (CB1 [3]): agonists

Q: For `COc1cc(/C=C/C(O)=C/C(=O)/C=C/c2ccc(O)cc2)ccc1O` [Compound 12, demethoxycurcumin], which IC50 (CYP2C9 [6]) is on record?
A: The IC50 was 1400 ± 200 nM.

Q: And the IC50 (CYP1A2)?
A: Its IC50 is 34000 ± 14200 nM.

Q: What about the IC50 (CYP3A4 [7]) of the same compound?
A: The IC50 was 7000 ± 1700 nM.

Q: With `CCN(CC)Cc1cc(Nc2ccnc3cc(Cl)ccc23)ccc1O` [amodiaquine] as the compound, how does the Km (CYP2C8) read?
A: The Km was 0.9 µM.

Q: With `CC(NC(C)(C)C)C(=O)c1cccc(Cl)c1` (stereo not shown) [bupropion] as the compound, how does the Km (CYP2B6) read?
A: The Km was 137 µM.

Q: With `Cc1ccc(C(C)C)cc1O` [carvacrol] as the compound, how does the “4-methylumbelliferone glucuronidation activity remaining” value (UGT1A9) read?
A: Its value is 20 % maximal activity.

Q: For `O=c1ccc2ccccc2o1` [coumarin], which Km (CYP2A6) is on record?
A: Its Km is 1 µM.

Q: For `COc1ccc2c(c1)[C@]13CCCC[C@@H]1[C@H](C2)N(C)CC3` [dextromorphone], which Km (CYP2D6) is on record?
A: The Km was 5 µM.

Q: For `O=C(O)Cc1ccccc1Nc1c(Cl)cccc1Cl` [diclofenac], which Km (CYP2C9 [8]) is on record?
A: The Km was 3.5 µM.

Q: Which Km (CYP3A4 [9]) does the source give for `Cc1ncc2n1-c1ccc(Cl)cc1C(c1ccccc1F)=NC2` [midazolam] here?
A: The Km was 1.8 µM.

Q: For `C[C@]12CC[C@H]3[C@@H](CCC4=CC(=O)CC[C@@]43C)[C@@H]1CC[C@@H]2O` [testosterone], which Km (CYP3A4 [9]) is on record?
A: Its Km is 64 µM.
